Experiments:
[1] = test system: AMP-activated protein kinase (AMPK); experiment: AMPK phosphorylation assay; assay type: cell-based; details: C2C12 myotubes, 0, 1, 3, 10 and 30 μM, 37° C., 1 hour
Procedure: In this study, differentiated C2C12 mycrotubes (American Type Culture Collection: ATCC) were used to conduct an AMPK phosphorylation assay, which was performed based on the method as described in Experimental and Molecular Medicine, Vol. 39, No. 2, 222-229, 2007. Briefly, the cells were cultured as in Example 1 and incubated with different concentrations of Compound 1 (0, 1, 3, 10 and 30 μM) at 37° C. for 1 hour and then cells were lysed. The cell lysate were immunodetected with phosphor-AMPK specific antibody. […] AMPK activator AICAR (5-amino-4-carboxamide imidazole riboside 5′-phosphate, 1 mM) was used as a positive control.

[2] = test system: Streptozotocin (STZ)-induced diabetic mice; experiment: Glucose tolerance assay in type I diabetic mice; assay type: in vivo
Procedure: Streptozotocin (STZ)-induced diabetic mice were administered orally with Compound 1 (50 mg/kg). STZ-induced diabetic mice are a well-known mouse model of type I diabetes (insulin dependent). See, e.g., Liu I M, et al., Neuroscience Letters 2001; 307: 81-84.
Two hours later, normal mice, STZ-induced diabetic mice, and the Compound 1-treated STZ-mice as described were subjected to a glucose tolerance assay. Briefly, all of the mice were orally administered with 1 g/kg glucose and the blood glucose levels of these mice were examined at 30, 60, 90, 120 and 150 minutes. In the normal and STZ-diabetic mice, the blood glucose levels elevated 30 minutes after uptake of glucose.
Alternatively, STZ-induced diabetic mice were treated with Compound 1 orally (100 mg/kg) for 14 days. These mice were then orally administered with glucose at a dose of 2 g/kg. Their blood glucose levels were examined 15, 45, 75, and 105 minutes after glucose administration.

[3] = test system: C2C12 mycrotubes; experiment: Insulin sensitivity assay (glucose uptake in presence of insulin); assay type: cell-based; details: in the presence of insulin 100 nM
Procedure: Differentiated C2C12 mycrotubes (American Type Culture Collection: ATCC) were used to conduct an insulin sensitivity assay, which was performed based on the method as described in Experimental and Molecular Medicine, Vol. 39, No. 2, 222-229, 2007. Briefly, the cells were incubated with different concentrations of Compound 1 in the presence of insulin 100 nM, and then the glucose uptake was measured. AMPK activator AICAR (5-amino-4-carboxamide imidazole riboside 5′-phosphate, […]) was used as a positive control.

[4] = test system: db/db mice; experiment: HOMA-IR test in type II diabetic mice; assay type: in vivo; details: 100 mg/kg/day orally for 28 days
Procedure: HOMA-IR is expressed by an empirical mathematical formula based on fasting plasma glucose and fasting plasma insulin levels that was developed as a surrogate measurement of in vivo insulin sensitivity: HOMA value for insulin resistance: (HOMA-IR)=fasting insulin (μU/ml)×fasting glucose (mmol/l)/22.5. See, e.g., Biol. Pharm. Bull. 2007; 30:2196-2200.
In this study, the db/db mice (Jackson Laboratory) were orally administered with Compound 1 (100 mg/kg/day) for 28 days. Subsequently, normal mice, db/db-mice, and the Compound 1-treated db/db-mice were subjected to a HOMA-IR test, which was conducted based on a method as described in Biol. Pharm. Bull. 2007; 30:2196-2200. Briefly, mouse insulin enzyme immunoassay ELISA kit was used to measure the plasma insulin concentration. Insulin resistance was determined by the homeostasis model assessment (HOMA) method.

[5] = test system: db/db mice; experiment: Glucose tolerance assay in type II diabetic mice; assay type: in vivo; details: 100 mg/kg/day orally 28 days or 30 mg/kg/day i.p. 21 or 28 days
Procedure: Insulin-resistant C57BL/6J-Leprdb/Lepr^db (hereafter, db/db) mice are a well-known mouse model of type II diabetes. See, e.g., Metabolism. 2000; 49:22-31). In this study, the db/db mice (Jackson Laboratory) were orally administered with Compound 1 (100 mg/kg/day) for 28 days, or administered with Compound 1 (30 mg/kg/day) via intraperitoneal (i.p.) injection for 21 days or 28 days. Two hours later, normal mice, db/db-mice, and the Compound 1-treated db/db-mice were subjected to a glucose tolerance assay as described in Example 1. FIGS. 6 to 8 show the results.

[6] = test system: High fat-diet fed (HFD) mice; experiment: Blood lipid/cholesterol assay in high fat-diet fed mice; assay type: in vivo; details: 100 mg/kg orally for 28 days
Procedure: High fat-diet fed (HFD) mice as a type 2 diabetic model were prepared based on the method as previously described in Diabetes 53 (Suppl. 3):S215-S219, 2004). In this study, mice were fed with a high-fat diet (TestDiet, Richmond, Ind., USA; fat content 60% kcal) for 8 weeks to induce type 2 diabetes. The HFD mice were treated with Compound 1 orally (100 mg/kg) for 28 days; and then normal mice, HFD mice, and the Compound 1-treated HFD mice were analyzed for the levels of serum lipids, including total cholesterol, triglyceride, high-density lipoprotein (HDL)-cholesterol, and low-density lipoprotein (LDL)-cholesterol by ELISA kits.

[7] = test system: db/db mice; experiment: HbA1C (Haemoglobin A1C) test in type II diabetic mice; assay type: in vivo; details: 100 mg/kg/day orally for 28 days
Procedure: In the blood stream, glucose sticks to the haemoglobin to form a “glycosylated haemoglobin” molecule, called haemoglobin A1C or HbA1C. The more glucose in the blood, the more haemoglobin A1C or HbA1C will be present in the blood. The HbA1C test is currently one of the common ways to check if diabetes is under control. See, e.g. Diabetes Care. 2001; 24:465-471.
In this study, the db/db mice (Jackson Laboratory) were orally administered with Compound 1 (100 mg/kg/day) for 28 days. Subsequently, normal mice, db/db-mice, and the Compound 1-treated db/db-mice were subjected to a HbA1C test, which was conducted based on a method as described in Life Sci. 2005; 77:1391-403. Briefly, at the end of the experimental period, animals were sacrificed by exsanguinations under diethyl ether anesthesia. Plasma was separated from the blood by centrifugation. HbA1c in blood was measured by the standardized method.

[8] = test system: acetyl CoA carboxylase; experiment: Acetyl CoA carboxylase (ACC) phosphorylation assay; assay type: cell-based; details: C2C12 mycrotubes, different concentrations
[9] = test system: C2C12 mycrotubes; experiment: Glucose consumption/uptake assay; assay type: cell-based; details: [14C]2-DG, incubated with compounds for 1 hour
Procedure: Differentiated C2C12 mycrotubes (American Type Culture Collection: ATCC) were used to conduct a glucose consumption/uptake assay, which was performed based on the method as described in Experimental and Molecular Medicine, Vol. 39, No. 2, 222-229, 2007. Briefly, the C2C12 cells were pretreated with 0.5 μCi [^14C]2-DG for 20 min and then incubated with compounds for 1 hour to determine glucose uptake by radio activity. All values are expressed as the means±S.E. of three experiments.

[10] = test system: PEPCK mRNA; experiment: Phosphoenolpyruvate carboxykinase (PEPCK) mRNA expression assay in liver; assay type: in vivo; details: STZ-induced diabetic mice, 100 mg/kg orally for 14 days, RT-PCR
Procedure: PEPCK is known as a key enzyme that controls gluconeogenesis in the liver. In this study, STZ-induced diabetic mice were treated with Compound 1 orally (100 mg/kg) for 14 days, and then normal mice, STZ-induced diabetic, and the Compound 1-treated STZ-mice described above were analyzed for the PEPCK mRNA expression in liver based on the method as described in Bulletin of Experimental Biology and Medicine 1979; 87: 568-571. Briefly, at the end of the experimental period, animals were sacrificed by exsanguinations under diethyl ether anesthesia. Livers from each animal were excised and weighed. The liver homogenates were prepared to determine the PEPCK mRNA expression by RT-PCR analysis.

[11] = test system: Glut4 (glucose transporter-4); experiment: Glucose transporter-4 (Glut4) expression assay in soleus muscles; assay type: in vivo; details: STZ-induced diabetic mice, 100 mg/kg orally for 14 days, western blot
Procedure: GLUT4 plays an important role in insulin-induced glucose uptake to maintain normal blood glucose levels. In this study, STZ-induced diabetic mice were treated with Compound 1 orally (100 mg/kg) for 14 days; and then normal mice, STZ-induced diabetic, and the Compound 1-treated STZ-mice as described were analyzed for the Glut4 expression in soleus muscles based on the method as described in Biochem J. 1996; 313(Pt 1): 133-140). Briefly, at the end of the experimental period, animals were sacrificed by exsanguinations under diethyl ether anesthesia. Soleus muscles from each animal were excised and weighed. The soleus muscles were homogenized in lysis buffer and centrifugation, and then went to determine the GLUT4 protein expression by western blot analysis.

[12] = STZ-induced diabetic mice, 100 mg/kg orally for 14 days, glucose 2 g/kg orally

| Structure (SMILES) | phosphorylation of the AMPK alpha-subunit at Thr172 [1] | blood glucose levels in STZ-induced diabetic mice (glucose tolerance) [2, 12] | insulin sensitivity (glucose uptake) [3] | HOMA-IR levels [4] | also measured |
| --- | --- | --- | --- | --- | --- |
| Cc1cc2c(c(C)c1CCO)C(=O)C(C)C2O (stereo not shown) [Compound 4] | the same effect | – | – | – | – |
| Cc1cc2c(c(C)c1CCO)C(=O)C(C)(C)C2O (stereo not shown) [Compound 7] | the same effect | the same effect | the same effect | the same effect | – |
| Cc1cc2c(c(C)c1CCO)C(=O)C(C)(CO)C2 (stereo not shown) [Compound 1, 6-(2-Hydroxy-ethyl)-2-hydroxymethyl-2,5,7-trimethyl-indan-1-one] | increased the phosphorylation of the AMPK alpha-subunit at Thr^172 in a dose dependent manner | significantly lowered blood glucose levels | significantly enhanced the insulin sensitivity | significantly reduced the HOMA-IR levels | blood glucose levels at 30 minute after glucose uptake ([2]; STZ-diabetic mice, 50 mg/kg orally, 2 hours before 1 g/kg oral glucose, 30 min): increased only slightly; blood glucose levels 60 minutes after glucose uptake ([2]; STZ-diabetic mice, 50 mg/kg orally, 2 hours before 1 g/kg oral glucose, 60 min): significantly lowered; blood glucose levels 45 minutes after glucose administration ([2]; STZ-induced diabetic mice, 100 mg/kg orally for 14 days, glucose 2 g/kg orally, 45 min): decreased significantly; glucose intolerance in db/db-mice [5]: significantly improved the glucose intolerance; anti-obesity effects [6]: exhibited anti-obesity effects; serum lipids ([6]; total cholesterol, triglyceride, HDL- and LDL-cholesterol by ELISA): significantly reduced serum lipids; HbA1C levels [7]: significantly reduced the HbA1C levels; phosphorylation of acetyl CoA carboxylase at Ser79 [8]: increased phosphorylation; glucose consumption/uptake [9]: significantly promote glucose consumption/uptake; overexpression of PEPCK mRNA in the liver [10]: significantly inhibited the overexpression of PEPCK mRNA; redistribution of Glut4 into the cell membrane of soleus muscles [11]: significantly rescued the redistribution of Glut4 |

Further lines, with some results ahead:

| phosphorylation of the AMPK alpha-subunit at Thr172 [1] | Structure (SMILES) | blood glucose levels in STZ-induced diabetic mice (glucose tolerance) [2, 12] | insulin sensitivity (glucose uptake) [3] | HOMA-IR levels [4] | also measured |
| --- | --- | --- | --- | --- | --- |
| the same effect | Cc1cc2c(c(C)c1CCO)C(=O)C(C)(C)C2OC1OC(CO)C(O)C(O)C1O (stereo not shown) [Compound 73] | the same effect | the same effect | the same effect | – |
| the same effect | Cc1cc2c(c(C)c1CCOC1OC(CO)C(O)C(O)C1O)C(=O)C(C)(C)C2 (stereo not shown) [Compound 52] | – | – | – | – |

From US8633252B2, “Use of pterosin compounds for treating diabetes and obesity” (Taipei Medical University, priority 2009, dated 2014)
